Measurements: patent publication US20240182513A1, “SEPARATION OF METAL IONS FROM A SAMPLE USING GLYCOLIPIDS” (ARIZONA BOARD OF REGENTS ON BEHALF OF THE UNIVERSITY OF …, priority 2021, published 2024)

Key:
[1] = Example 2.1 rhamnolipid precipitation, filtration, centrifugation: lead; details: for Treatment 2: Rhamnolipid and Filtration Cf / Treatment 3: Rhamnolipid and Centrifugation Cc / Treatment 1: Rhamnolipid Only Cr: lead concentration after treatment
Protocol: (§1) Structural variants of synthetic glycolipids were used to show the effect of the number and length of the hydrophobic tail(s) on rhamnolipid as a chemical precipitant. […] Solutions (10 mM) were made using nanopure water (≥18 MΩ-cm) then adjusted to a pH of 6.9±0.05 with HNO3 and NaOH. These solutions were made in advance and stored in the cold room for up to one month. They were brought to room temperature before each experiment.
(§2) Three metals were tested for binding with rhamnolipid. Lead as […] (Fisher Scientific, Waltham, MA, 99% purity), was chosen to represent a metal with high rhamnolipid-metal conditional stability constant; lanthanum as La(NO3)3 6(H2O) (Sigma-Aldrich, St. Louis, MO, 99.99% purity) was chosen as a representative REE; and magnesium as Mg(NO3)2 6(H2O) (Sigma-Aldrich, St. Louis, MO, 99% purity) was chosen to represent a metal with a low rhamnolipid-metal conditional stability constant (Hogan et al., 2017). Metal solutions (5 mM) were made using nanopure water (≥18 MΩ-cm) in 20 ml glass scintillation vials. All solutions were used within 15 min to ensure minimal adsorption to the glass vial.
(§3) Three glycolipid-based treatments were evaluated to remove metal from solution: (1) the addition of glycolipid with no further treatment (gravitational precipitation), (2) the addition of a glycolipid followed by filtration or (3) the addition of a glycolipid followed by centrifugation. Each metal (Pb, La, and Mg) was evaluated separately with each of the glycolipid structures. For each experiment, a metal solution was mixed with a glycolipid solution in a 1.7 ml reaction tube at varying molar ratios of glycolipid to metal: 0:1 (glycolipid-free control), 2:1, 5:1, and 10:1. The reactions were mixed in the order of nanopure water (≥18 MΩ-cm), glycolipid solution (10 mM), then metal solution (5 mM). The metal and glycolipid solutions were continuously stirred as they were aliquoted into the reaction tubes. The experiment was performed in triplicate.
(§4) The reaction tubes were mixed overnight (16 to 24 h) and then three samples were collected from each tube to measure the effect of each of the three treatments: a glycolipid only treatment sample, a filtration treatment sample, and a centrifugation treatment sample. Briefly, for the glycolipid only treatment samples all tubes were vortexed for approximately 5 sec immediately before removing 0.1 ml into a dilution tube of 2% trace metal grade nitric acid (12 to 14 ml) to minimize the settling of particles. For the filtration samples each reaction tube was vortexed for 5 sec and then a 0.6 ml aliquot was collected with a 1 ml syringe. A GHP acrodisc disk filter (hydrophilic polypropylene membrane, 0.45 μm pore size, 25 mm disc diameter) from Pall Life Sciences (Port Washington, New York) was then placed onto the end of the syringe and the solution was pushed through the filter. The void space in the disk filter holds approximately 0.5 ml, therefore around 0.1 ml of filtrate was collected into a dilution tube. For the centrifugation sample, the remaining solution was centrifuged at 10,000 RCF for 15 min. Approximately 0.1 ml of the supernatant was aliquoted into a dilution tube. Following collection, all samples were taken for metal analysis using ICP-MS.

[2] = Example 2.1 rhamnolipid precipitation, filtration, centrifugation: magnesium; details: for Treatment 2: Rhamnolipid and Filtration Cf / Treatment 3: Rhamnolipid and Centrifugation Cc / Treatment 1: Rhamnolipid Only Cr: magnesium concentration after treatment; for Treatment 1: Rhamnolipid Only (Rr) efficiency of removal / Treatment 2: Rhamnolipid and Filtration (Rf) efficiency of removal / Treatment 3: Rhamnolipid and Centrifugation (Rc) efficiency of removal: magnesium
Protocol: as §1, §2, §3, §4

[3] = Example 2.1 rhamnolipid precipitation, filtration, centrifugation: lanthanum; details: for Treatment 2: Rhamnolipid and Filtration Cf / Treatment 3: Rhamnolipid and Centrifugation Cc / Treatment 1: Rhamnolipid Only Cr: lanthanum concentration after treatment
Protocol: as §1, §2, §3, §4

[4] = Example 2.2 glycolipid facilitated chemical precipitation: lead
Protocol: Nine different structural variants were selected to examine the effect of the headgroup and number and length of the hydrophobic tail(s) on glycolipids as a chemical precipitant (Table 6). These solutions were made in advance and stored at 4° C. for up to one month and brought to room temperature (˜25° C.) before each experiment.
Each metal (Pb^2+, La^3+, and Mg^2+) was evaluated separately with each of the nine glycolipids. […] The reactions were mixed in the order of nanopure water (≥18 MΩ-cm), glycolipid solution, then metal solution. The metal and glycolipid solutions were continuously stirred as they were aliquoted into the reaction tubes. All experiments were performed in triplicate.
The reaction tubes were rotated overnight (16 to 24 h) and then three samples were collected from each tube to measure metal removal from solution: (1) no further treatment; (2) an additional filtration step; and (3) an additional centrifugation step. Briefly, for the glycolipid adsorption treatment samples all tubes were vortexed for approximately 5 sec immediately before sampling to ensure that non-adsorbed glycolipid-metal complexes were mixed into the solution column. After mixing, 0.1 ml of the reaction solution was aliquoted into a dilution tube of 2% trace metal grade nitric acid for analysis. This sample measures the loss of metal due to the formation of hydrophobic scums or adsorbed complexes not attributable to the subsequent filtration or centrifugation treatments.
Samples for the filtration treatment were vortexed for 5 sec, then a 0.6 ml aliquot was collected with a 1 ml syringe. A GHP acrodisc disk filter (hydrophilic polypropylene membrane, 0.45 µm pore size, 25 mm disc diameter) from Pall Life Sciences (Port Washington, New York) or PTFE disk filters (hydrophobic polytetrafluoroethylene membrane, 0.45 μm pore size, 25 mm disc diameter) from Fisher Scientific (Waltham, MA) was then placed onto the end of the syringe and approximately 0.1 ml of filtrate was collected into a dilution tube for analysis. The centrifuge sample was collected by centrifuging the remaining reaction solution at 10,000 RCF for 15 min. Approximately 0.1 ml of the supernatant was aliquoted into a dilution tube for analysis. Following collection, the metal content in all samples was analyzed at the Arizona Laboratory for Emerging Contaminants (ALEC) at the University of Arizona using inductively coupled plasma mass spectrometry.
R was determined by comparing the solution metal concentration of the treatment sample (Cnt for the glycolipid with no further treatment sample, Cf for the glycolipid and filtration sample, and Cc for the glycolipid and centrifugation sample) to the solution metal concentration of a glycolipid-free control (Ci) that underwent the same handling and processing steps. The equations for these calculations are shown below: […]

Structure (SMILES): CCCC(CC(=O)O)OC1O[C@@H](C)[C@H](O)[C@@H](O)[C@H]1O (some centres unmarked) [Rha C6]
- Treatment 2: Rhamnolipid and Filtration Cf ([1]; molar ratio 2 to 1): 0.115 ± 0.022 mmol/L
- Treatment 3: Rhamnolipid and Centrifugation Cc ([1]; molar ratio 2 to 1): 0.313 ± 0.003 mmol/L
- Treatment 1: Rhamnolipid Only Cr ([1]; molar ratio 5 to 1): 0.329 ± 0.014 mmol/L
- Treatment 2: Rhamnolipid and Filtration Cf ([1]; molar ratio 5 to 1): 0.046 ± 0.017 mmol/L
- Treatment 3: Rhamnolipid and Centrifugation Cc ([1]; molar ratio 5 to 1): 0.322 ± 0.004 mmol/L
- Treatment 1: Rhamnolipid Only Cr ([1]; molar ratio 10 to 1): 0.316 ± 0.008 mmol/L
- Treatment 2: Rhamnolipid and Filtration Cf ([1]; molar ratio 10 to 1): 0.119 ± 0.018 mmol/L
- Treatment 3: Rhamnolipid and Centrifugation Cc ([1]; molar ratio 10 to 1): 0.323 ± 0.005 mmol/L
- Treatment 1: Rhamnolipid Only Cr ([1]; molar ratio rhamnolipid:lead 2 to 1): 0.323 ± 0.005 mmol/L
- Treatment 2: Rhamnolipid and Filtration (Rf) efficiency of removal ([1]; lead, molar ratio 2 to 1): (64.0%)
- Treatment 3: Rhamnolipid and Centrifugation (Rc) efficiency of removal ([1]; lead, molar ratio 2 to 1): (2.2%)
- Treatment 2: Rhamnolipid and Filtration (Rf) efficiency of removal ([1]; lead, molar ratio 5 to 1): (85.8%)
- Treatment 1: Rhamnolipid Only (Rr) efficiency of removal ([1]; lead, molar ratio 10 to 1): (1.4%)
- Treatment 2: Rhamnolipid and Filtration (Rf) efficiency of removal ([1]; lead, molar ratio 10 to 1): (62.7%)
- Treatment 2: Rhamnolipid and Filtration Cf ([2]; molar ratio 2 to 1): 0.202 ± 0.016 mmol/L
- Treatment 3: Rhamnolipid and Centrifugation Cc ([2]; molar ratio 2 to 1): 0.265 ± 0.010 mmol/L
- Treatment 1: Rhamnolipid Only Cr ([2]; molar ratio 5 to 1): 0.248 ± 0.013 mmol/L
- Treatment 2: Rhamnolipid and Filtration Cf ([2]; molar ratio 5 to 1): 0.178 ± 0.020 mmol/L
- Treatment 3: Rhamnolipid and Centrifugation Cc ([2]; molar ratio 5 to 1): 0.255 ± 0.001 mmol/L
- Treatment 1: Rhamnolipid Only Cr ([2]; molar ratio 10 to 1): 0.258 ± 0.011 mmol/L
- Treatment 2: Rhamnolipid and Filtration Cf ([2]; molar ratio 10 to 1): 0.165 ± 0.001 mmol/L
- Treatment 3: Rhamnolipid and Centrifugation Cc ([2]; molar ratio 10 to 1): 0.272 ± 0.016 mmol/L
- Treatment 1: Rhamnolipid Only Cr ([2]; molar ratio rhamnolipid:magnesium 2 to 1): 0.247 ± 0.014 mmol/L
- Treatment 1: Rhamnolipid Only (Rr) efficiency of removal ([2]; molar ratio 2 to 1): (7.6%)
- Treatment 2: Rhamnolipid and Filtration (Rf) efficiency of removal ([2]; molar ratio 2 to 1): (24.5%)
- Treatment 3: Rhamnolipid and Centrifugation (Rc) efficiency of removal ([2]; molar ratio 2 to 1): (0.9%)
- Treatment 1: Rhamnolipid Only (Rr) efficiency of removal ([2]; molar ratio 5 to 1): (7.3%)
- Treatment 2: Rhamnolipid and Filtration (Rf) efficiency of removal ([2]; molar ratio 5 to 1): (33.4%)
- Treatment 3: Rhamnolipid and Centrifugation (Rc) efficiency of removal ([2]; molar ratio 5 to 1): (4.9%)
- Treatment 1: Rhamnolipid Only (Rr) efficiency of removal ([2]; molar ratio 10 to 1): (3.6%)
- Treatment 2: Rhamnolipid and Filtration (Rf) efficiency of removal ([2]; molar ratio 10 to 1): (38.2%)
- Treatment 2: Rhamnolipid and Filtration Cf ([3]; molar ratio 2 to 1): 0.143 ± 0.062 mmol/L
- Treatment 3: Rhamnolipid and Centrifugation Cc ([3]; molar ratio 2 to 1): 0.324 ± 0.018 mmol/L
- Treatment 1: Rhamnolipid Only Cr ([3]; molar ratio 5 to 1): 0.282 ± 0.026 mmol/L
- Treatment 2: Rhamnolipid and Filtration Cf ([3]; molar ratio 5 to 1): 0.106 ± 0.026 mmol/L
- Treatment 3: Rhamnolipid and Centrifugation Cc ([3]; molar ratio 5 to 1): 0.320 ± 0.024 mmol/L
- Treatment 1: Rhamnolipid Only Cr ([3]; molar ratio 10 to 1): 0.332 ± 0.040 mmol/L
- Treatment 2: Rhamnolipid and Filtration Cf ([3]; molar ratio 10 to 1): 0.114 ± 0.064 mmol/L
- Treatment 3: Rhamnolipid and Centrifugation Cc ([3]; molar ratio 10 to 1): 0.294 ± 0.010 mmol/L
- Treatment 1: Rhamnolipid Only Cr ([3]; molar ratio rhamnolipid:lanthanum 2 to 1): 0.325 ± 0.026 mmol/L
- Treatment 2: Rhamnolipid and Filtration (Rf) efficiency of removal ([3]; lanthanum, molar ratio 2 to 1): (51.8%)
- Treatment 1: Rhamnolipid Only (Rr) efficiency of removal ([3]; lanthanum, molar ratio 5 to 1): (5.2%)
- Treatment 2: Rhamnolipid and Filtration (Rf) efficiency of removal ([3]; lanthanum, molar ratio 5 to 1): (64.4%)
- Treatment 2: Rhamnolipid and Filtration (Rf) efficiency of removal ([3]; lanthanum, molar ratio 10 to 1): (61.6%)
- Treatment 3: Rhamnolipid and Centrifugation (Rc) efficiency of removal ([3]; lanthanum, molar ratio 10 to 1): (1.1%)

Structure (SMILES): CCCCCCCC(CC(=O)O)OC1O[C@H](CO)[C@H](O)[C@H](O)[C@H]1O (some centres unmarked) [Gal-C10]
- Pb^2+ removal ([4]; precipitation followed by filtration, 2:1 molar ratio): 95.5%
- Pb^2+ maximum removal ([4]; precipitation without further treatment, maximum over molar ratios): 38%
